Measured values: US5019575A, “Novel pyridazinone compounds, compositions thereof and method of use” (Orion-yhtyma Oy, priority 1989, dated 1991)
Where two headings read alike, the source gives them in different places.

Tests used:
[1] = tested on: guinea-pig papillary muscle; experiment: Cardiotonic effect in isolated, electrically driven, right ventricular papillary muscle, without and with carbachol; conditions: for EC50: Cavia porcellus; for Ratio B/A of EC50: with 10 μM carbachol / without carbachol
Method: The cardiotonic action of the compound was studied in isolated, electrically driven, right ventricular papillary muscle of guinea-pig.
A = experiments carried out without carbachol
B = experiments carried out in the presence of 10 μM carbachol

[2] = tested on: troponin; experiment: Retention time in troponin high-performance liquid affinity chromatography (HPLAC) column, calcium dependent binding to troponin; conditions: for Ratio Ca^2+ /EDTA (retention times in troponin-HPLAC column): Ca^2+ solution / EDTA solution; for Retention time in troponin-HPLAC column, Ca^2+ solution: mobile phase with 30 mM calcium; for Retention time in troponin-HPLAC column, Ca^2+ solution / Retention time in troponin-HPLAC column, EDTA solution: flow rate 1 ml/min; for Retention time in troponin-HPLAC column, EDTA solution: mobile phase without calcium (EDTA)
Method: The contraction in cardiac muscle and in vascular smooth muscle is triggered by the binding of calcium to troponin and to calmodulin, respectively. […] Commercially available troponin was coupled to the matrix of SelectiSpher-10™ Activated Tresyl silica HPLAC column (size 10 cm×5 mm). The compounds were run through the column with the flow rate 1 ml/min and detected by UV-spectrophotometrically.

[3] = tested on: guinea-pig papillary muscle; experiment: Ability to induce tonic contraction in papillary muscle in the absence of extracellular calcium; conditions: drug concentration 100 μM; no extracellular calcium
Method: The cardiotonic action of the compound was studied in isolated, electrically driven, right ventricular papillary muscle of guinea-pig. In order to compare the cardiotonic action based on PDEIII inhibition to that based on the other mechanisms the experiments were carried out in normal Tyrode's bathing solution (Otani et al., Japan. J. Pharmacol. 45, 425, 1987) and also in the solution with carbachol to eliminate the cardiotonic action due to the PDEIII inhibition (Alousi & Johnson, Circulation, 73 (suppl. III), 10-23, 1986).
C = ability to induce tonic contraction in the absence of extracellular
calcium; drug concentration 100 μM

[4] = biological target: T1, cardiac phosphodiesterase III (PDEIII), dog (Canis lupus familiaris, UniProt A0A8I3NYE0); experiment: Inhibition of cardiac phosphodiesterase III, dog heart enzyme preparation; type: biochemical
T1 construct: enzyme preparation isolated from dog and guinea-pig heart; from tissue; host or cells: dog heart
T1 sequence (A0A8I3NYE0 1-1135): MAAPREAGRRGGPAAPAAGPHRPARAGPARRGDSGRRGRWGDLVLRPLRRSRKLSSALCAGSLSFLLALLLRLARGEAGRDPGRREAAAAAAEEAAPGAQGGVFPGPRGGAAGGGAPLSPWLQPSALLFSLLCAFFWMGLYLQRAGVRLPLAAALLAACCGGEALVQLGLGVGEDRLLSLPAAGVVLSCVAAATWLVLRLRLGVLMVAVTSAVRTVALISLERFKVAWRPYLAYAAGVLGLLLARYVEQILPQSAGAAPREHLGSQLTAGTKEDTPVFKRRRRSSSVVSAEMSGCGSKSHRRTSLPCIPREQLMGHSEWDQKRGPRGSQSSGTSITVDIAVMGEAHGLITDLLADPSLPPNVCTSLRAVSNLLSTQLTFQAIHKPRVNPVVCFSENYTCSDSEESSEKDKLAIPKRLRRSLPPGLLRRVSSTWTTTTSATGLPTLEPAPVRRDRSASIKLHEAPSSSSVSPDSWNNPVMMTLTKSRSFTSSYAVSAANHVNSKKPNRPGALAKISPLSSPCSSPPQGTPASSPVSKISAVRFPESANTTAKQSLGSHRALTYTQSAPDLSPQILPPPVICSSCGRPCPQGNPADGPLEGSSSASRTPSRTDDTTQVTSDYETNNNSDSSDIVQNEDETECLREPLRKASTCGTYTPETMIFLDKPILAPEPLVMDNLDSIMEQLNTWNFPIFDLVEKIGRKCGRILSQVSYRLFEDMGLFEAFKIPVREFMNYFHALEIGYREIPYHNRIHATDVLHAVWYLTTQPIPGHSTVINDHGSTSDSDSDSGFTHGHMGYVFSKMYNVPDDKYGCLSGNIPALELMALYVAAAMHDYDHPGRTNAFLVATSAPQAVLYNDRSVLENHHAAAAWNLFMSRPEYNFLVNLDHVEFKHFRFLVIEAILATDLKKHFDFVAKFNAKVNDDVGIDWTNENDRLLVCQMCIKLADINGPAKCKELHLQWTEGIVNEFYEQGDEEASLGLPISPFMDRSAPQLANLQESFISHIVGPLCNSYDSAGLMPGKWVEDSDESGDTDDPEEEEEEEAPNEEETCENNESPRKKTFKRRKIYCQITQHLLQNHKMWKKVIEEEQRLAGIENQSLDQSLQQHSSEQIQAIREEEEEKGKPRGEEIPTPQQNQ

[5] = Precipitation at 100 μM concentration (footnote of Table 3); type: physicochemical; design: key: *: precipitation occurs at 100 μM concentration; conditions: printed in column C of Table 3
[6] = biological target: T2, cardiac phosphodiesterase III (PDEIII), guinea-pig (Cavia porcellus, UniProt H0VIU9); experiment: Inhibition of cardiac phosphodiesterase III, guinea-pig heart enzyme preparation; type: biochemical
T2 construct: enzyme preparation isolated from dog and guinea-pig heart; from tissue; host or cells: guinea-pig heart
T2 sequence (H0VIU9 1-1132): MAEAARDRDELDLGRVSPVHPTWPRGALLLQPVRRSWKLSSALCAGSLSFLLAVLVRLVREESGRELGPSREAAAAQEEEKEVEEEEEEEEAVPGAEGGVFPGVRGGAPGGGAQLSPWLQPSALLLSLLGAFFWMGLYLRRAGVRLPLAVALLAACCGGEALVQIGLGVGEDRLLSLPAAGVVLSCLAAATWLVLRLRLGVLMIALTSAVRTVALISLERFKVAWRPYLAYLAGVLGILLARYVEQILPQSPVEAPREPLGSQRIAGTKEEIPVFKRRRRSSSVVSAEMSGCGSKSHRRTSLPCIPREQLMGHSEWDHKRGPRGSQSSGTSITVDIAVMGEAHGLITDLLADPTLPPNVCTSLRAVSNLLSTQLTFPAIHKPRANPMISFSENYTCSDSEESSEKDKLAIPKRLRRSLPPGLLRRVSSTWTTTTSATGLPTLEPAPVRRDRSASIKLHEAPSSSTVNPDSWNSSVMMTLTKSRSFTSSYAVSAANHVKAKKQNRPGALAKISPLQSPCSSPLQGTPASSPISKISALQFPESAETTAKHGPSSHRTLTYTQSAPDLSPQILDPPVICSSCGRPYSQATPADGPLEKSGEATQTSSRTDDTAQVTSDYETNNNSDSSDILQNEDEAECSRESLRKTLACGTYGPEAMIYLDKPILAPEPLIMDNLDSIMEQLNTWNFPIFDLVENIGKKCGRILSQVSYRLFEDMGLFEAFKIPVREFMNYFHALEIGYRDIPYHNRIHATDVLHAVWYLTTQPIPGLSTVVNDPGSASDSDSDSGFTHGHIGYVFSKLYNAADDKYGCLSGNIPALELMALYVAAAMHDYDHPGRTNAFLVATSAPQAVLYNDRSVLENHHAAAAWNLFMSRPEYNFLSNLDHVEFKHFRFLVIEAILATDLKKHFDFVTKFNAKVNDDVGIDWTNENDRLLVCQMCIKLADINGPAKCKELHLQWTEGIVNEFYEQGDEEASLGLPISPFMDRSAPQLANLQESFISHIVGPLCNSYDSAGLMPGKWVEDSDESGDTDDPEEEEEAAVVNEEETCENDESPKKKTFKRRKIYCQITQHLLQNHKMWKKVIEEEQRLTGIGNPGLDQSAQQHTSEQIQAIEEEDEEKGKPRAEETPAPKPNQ
Excerpt: The PDEIII inhibition was studied by using enzyme preparation isolated from dog and guinea-pig heart according to Alajoutsijarvi and Nissinen (Anal. Biochem. 165, 128-132, 1987).

[7] = read-out: EC50 cardiotonic effect (A)
[8] = dog heart, read-out: IC50-value, inhibition of cardiac phosphodiesterase III, Dog
[9] = without carbachol, read-out: EC50 cardiotonic effect (A)

Compound: N#CC(C#N)=NNc1ccc(C2=NNC(=O)CC2)cc1 [Example 1, 6-[4-(1,1-dicyanomethylidenehydrazino)phenyl]-4,5-dihydropyridazin-3(2H)one]
- EC50 [1, 7]: 1800 nM
- Ratio B/A of EC50 [1]: 2.0
- Ratio Ca^2+ /EDTA (retention times in troponin-HPLAC column) [2]: 1.59
- Retention time in troponin-HPLAC column, Ca^2+ solution [2]: 3.5 min
- Retention time in troponin-HPLAC column, EDTA solution [2]: 2.2 min
- C: ability to induce tonic contraction in the absence of extracellular calcium [3]: yes
- IC50 [4, 8]: 270 nM

Compound: CC1CC(=O)NN=C1c1ccc(NN=C(C#N)C#N)cc1 (stereo not shown) [Example 6, 6-[4-(1,1-dicyanomethylidenehydrazino)phenyl]-4,5-dihydro-5-methylpyridazin-3(2H)one]
- EC50 [1, 7]: 170 nM
- IC50 [4, 8]: 62 nM

Compound: CC(=O)C(=NNc1ccc(C2=NNC(=O)CC2)cc1)C(C)=O [Example 7, 6-[4-(1,1-diacetylmethylidenehydrazino)phenyl]-4,5-dihydropyridazin-3(2H)on]
- precipitation [5]: *
- EC50 ([1]; in the presence of 10 μM carbachol, read-out: EC50 cardiotonic effect (B)): 2700 nM
- EC50 [1, 9]: 740 nM
- Ratio B/A of EC50 [1]: 3.6
- Ratio Ca^2+ /EDTA (retention times in troponin-HPLAC column) [2]: 1.29
- Retention time in troponin-HPLAC column, Ca^2+ solution [2]: 5.4 min
- Retention time in troponin-HPLAC column, EDTA solution [2]: 4.2 min
- IC50 [4, 8]: 230 nM

Compound: CC1CC(=O)NN=C1/C=C/c1ccc(NN=C(C#N)C#N)cc1 (stereo not shown) [Example 33, (E)-6-[2-(4-(1,1-dicyanomethylidenehydrazino)phenyl)ethenyl]-4,5-dihydro-5-methylpyridazin-3(2H)one]
- EC50 [1, 9]: 300 nM
- Ratio Ca^2+ /EDTA (retention times in troponin-HPLAC column) [2]: 1.69
- Retention time in troponin-HPLAC column, Ca^2+ solution [2]: 6.6 min
- Retention time in troponin-HPLAC column, EDTA solution [2]: 3.9 min
- C: ability to induce tonic contraction in the absence of extracellular calcium [3]: yes
- IC50 [6]: 6 nM

Compound: CC1SC(=O)NN=C1c1ccc(NN=C(C#N)C#N)cc1 (stereo not shown) [Example 41, 5-[4-(1,1-dicyanomethylidenehydrazino)phenyl]-5,6-dihydro-6-methyl-1,3,4-thiadiazin-2(3H)one]
- EC50 [1, 9]: 120 nM
- Ratio Ca^2+ /EDTA (retention times in troponin-HPLAC column) [2]: 2.19
- Retention time in troponin-HPLAC column, Ca^2+ solution [2]: 10.5 min
- Retention time in troponin-HPLAC column, EDTA solution [2]: 4.8 min
- C: ability to induce tonic contraction in the absence of extracellular calcium [3]: yes
- IC50 [6]: 24 nM

Compound: CC1NC(=O)NN=C1c1ccc(NN=C(C#N)C#N)cc1 (stereo not shown) [Example 43, 6-[4-(1,1-dicyanomethylidenehydrazino)phenyl]-4,5-dihydro-5-methyl-1,2,4-triazin-3(2H)one]
- Ratio Ca^2+ /EDTA (retention times in troponin-HPLAC column) [2]: 2.00
- Retention time in troponin-HPLAC column, Ca^2+ solution [2]: 2.4 min
- Retention time in troponin-HPLAC column, EDTA solution [2]: 1.2 min
- IC50 [6]: 17 nM

Compound: N#CC(C#N)=NNc1ccc(C2=NNC(=O)SC2)cc1 [Example 44, 5-[4-(1,1-dicyanomethylidenehydrazino)phenyl]-5,6-dihydro-1,3,4-thiadiazin-2(3H)one]
- EC50 [1, 9]: 1100 nM
- C: ability to induce tonic contraction in the absence of extracellular calcium [3]: yes
- IC50 [6]: 51 nM

Compound: N#CC(C#N)=NNc1ccc(C2=NNC(=O)NC2)cc1 [Example 45, 6-[4-(1,1-dicyanomethylidenehydrazino)phenyl]-4,5-dihydro-1,2,4-triazin-3(2H)one]
- Ratio Ca^2+ /EDTA (retention times in troponin-HPLAC column) [2]: 2.33
- Retention time in troponin-HPLAC column, Ca^2+ solution [2]: 2.1 min
- Retention time in troponin-HPLAC column, EDTA solution [2]: 0.9 min

Compound: N#CC(C#N)=NNc1ccc(C=CC2=NNC(=O)SC2)cc1 [Example 49, 5-[2-(4-(1,1-dicyanomethylidenehydrazino)phenyl)ethenyl]-5,6-dihydro-1,3,4-thiadiazin-2(3H)one]
- EC50 [1, 7]: 1100 nM
- Ratio Ca^2+ /EDTA (retention times in troponin-HPLAC column) [2]: 2.30
- Retention time in troponin-HPLAC column, Ca^2+ solution [2]: 18.4 min
- Retention time in troponin-HPLAC column, EDTA solution [2]: 8.0 min
- C: ability to induce tonic contraction in the absence of extracellular calcium [3]: yes
- IC50 [6]: 24 nM

Compound: O=C1CCC(c2ccc(Nc3ccncc3)cc2)=NN1 [MCI-154, reference compound]
- Ratio Ca^2+ /EDTA (retention times in troponin-HPLAC column) [2]: 0.52
- Retention time in troponin-HPLAC column, Ca^2+ solution [2]: 6.5 min
- Retention time in troponin-HPLAC column, EDTA solution [2]: 12.4 min
- IC50 [4, 8]: 420 nM

Compound: CC1(C)C(=O)Nc2cc3[nH]c(-c4ccncc4)nc3cc21 [adibendan, reference compound]
- Ratio Ca^2+ /EDTA (retention times in troponin-HPLAC column) [2]: 0.99
- Retention time in troponin-HPLAC column, Ca^2+ solution [2]: 14.8 min
- Retention time in troponin-HPLAC column, EDTA solution [2]: 15.0 min
- IC50 [4, 8]: 1000 nM

Compound: Cc1[nH]c(=O)c(C#N)cc1-c1ccncc1 [milrinone, reference compound]
- EC50 [1, 7]: 360 nM
- Ratio B/A of EC50 [1]: 15.3
- Ratio Ca^2+ /EDTA (retention times in troponin-HPLAC column) [2]: 1.00
- Retention time in troponin-HPLAC column, Ca^2+ solution [2]: 1.2 min
- Retention time in troponin-HPLAC column, EDTA solution [2]: 1.2 min
- C: ability to induce tonic contraction in the absence of extracellular calcium [3]: no
- IC50 [6]: 440 nM
- IC50 [4]: 580 nM

Compound: COc1ccc(-c2nc3ccc(C4=NNC(=O)CC4C)cc3[nH]2)cc1 (stereo not shown) [pimobendan, reference compound]
- EC50 [1, 9]: 3300 nM
- Ratio Ca^2+ /EDTA (retention times in troponin-HPLAC column) [2]: 0.88
- Retention time in troponin-HPLAC column, Ca^2+ solution [2]: 70.4 min
- Retention time in troponin-HPLAC column, EDTA solution [2]: 79.6 min
- C: ability to induce tonic contraction in the absence of extracellular calcium [3]: no
- IC50 [4, 8]: 1750 nM
